Data taken from patent US7666901B2, “Analogs of 17-hydroxywortmannin as PI3K inhibitors” (Wyeth, priority 2004, dated 2010).
Where two headings read alike, the source gives them in different places.

Experiments:
[1] = system: MDA468 (human breast cancer cell); test: Cell proliferation (MTS) assay, MDA468; type: cell-based; conditions: three days treatment
In short: (§1)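 Cells plated at about 3000 per well in RPMI-1640/10% FBS were dosed with compound one day later. Viability was read by MTS conversion (absorbance 490 nm, 1–2 h) three days after treatment began. Effect is expressed as percent of vehicle-treated growth on the same plate.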

[2] = system: phosphor-AKT (S473) in Rat1 cells; test: Rat1-IGF1 assay (IGF-1 induced phospho-AKT immunoblot); type: cell-based, rat
In short: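 After 24 h serum starvation, Rat1 cells got vehicle or varying 17-HWT concentrations for 2 hours, then IGF-1 (100 ng/mL) for 30 minutes. Lysates immunoblotted for phospho-AKT (S473) and total AKT.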

[3] = system: LNCaP (human prostate carcinoma); test: Cell proliferation (MTS) assay, LNCaP; type: cell-based; conditions: three days treatment
In short: as §1

Human TOR = target: T1, Human TOR (Homo sapiens, UniProt P42345); test: Human TOR (mTOR) kinase assay, DELFIA format; type: biochemical
T1 construct: FLAG
In short: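 Purified FLAG-TOR (800 ng/mL) phosphorylates His6-S6K ([…]) with […] ATP in Hepes pH 7.4 buffer containing MnCl2, 2 h at room temperature. Phospho-Thr389 S6K detected by DELFIA using Europium-labelled anti-P(T389)-p70S6K antibody; enzyme inhibition calculated from signal.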

C3H mammary model = conditions: cited from earlier work
PI3K [4] = conditions: cited from earlier work
[5] = system: DU145 (human prostate carcinoma/lymphocytic leukemia); test: Cell proliferation (MTS) assay, DU145; type: cell-based; conditions: three days treatment
In short: as §1

[6] = system: MDA435 (human breast adenocarcinoma); test: Cell proliferation (MTS) assay, MDA435; type: cell-based; conditions: three days treatment
In short: as §1

PI3K [7] = system: T2, PI3K; test: Fluorescence polarization assay for PI3K; type: biochemical; conditions: for PI3K FP IC50: Table 1
T2 construct: PI3K FP IC50
In short: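 PI3K was preincubated with compound at 1% DMSO final, then reacted with PIP2/ATP substrate for 30-60 min. The reaction was stopped with a detector mix giving 10 nM red probe and 70 nM GST-GRP. Fluorescence polarization (mP, Tamra filters) was read 30-90 min later and IC50 determined.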

[8] = system: HER2/Neu-overexpressing MDA361-DYT2 breast tumor cells; test: Tumor cell growth assay, HKI-272 and combination, MDA361-DYT2; type: cell-based, human; conditions: in vitro and in vivo
Protocol: Human tumor cell are all obtained from ATCC, and are cultured using standard cell culture methods. Cells are plated in 96-well culture plates at 1000 to 3000 cells per well. One day following plating, cells are treated with various doses of PI3K inhibitor Compound 4 or Compound 5 alone or with a low constant dose of MEK inhibitor 2-(2-chloro-4-iodoanilino)-N-(cycloprorylmethoxy-3,4-difluobenzamide) (1 μg/ml) or UO126 (5 μg/ml). UO126 is also known as 1,4-diamino-2,3-dicyano-1,4-bis[2-aminophenylthio]butadiene. In some experiments, cells are treated alone with various doses of the MEK inhibitor (2-(2-chloro-4-iodoanilino)-N-(cycloprorylmethoxy-3,4-difluobenzamide)), or HER2/neu inhibitor HKI-272, or mTOR inhibitor CCI-779, or with a low constant dose of Compound 4 (0.1 μg/ml). […] Three days after drug treatment, viable cell densities are determined by metabolic conversion (by viable cells) of the dye MTS, an established cell proliferation assay. […] The MTS assay results are read in a 96-well plate reader by measuring absorbance at 490 nm. The effect of each treatment is calculated as percent of control growth relative to the vehicle DMSO-treated cells grown in the same culture plate. […]

[9] = system: phosphorylated Her2/Neu, ERK and AKT pathway markers in MDA361-DYT2; test: Western blot analysis of pathway markers, MDA361-DYT2; type: cell-based, human; conditions: 0.1 μg/ml
Protocol: Cells are plated in 6-well culture plates. 24 hr later, cells are treated with indicated single agents or combined agents for 16 hr in full growth media. Protein lysates are prepared for Western blot analysis as previously described in Yu, K., et al., Endocr. Relat. Cancer. 2001 September :8(3) 249-58.

Compound | MDA468 IC50 ([1]; Table 1) | Rat1-IGF1 IC50 ([2]; Table 1) | LNCaP IC50 ([3]; Table 1) | TOR IC50 (Human TOR; Table 1) | DU145 IC50 ([5]; Table 1) | MDA435 IC50 ([6]; Table 1) | PI3K FP IC50 (PI3K [7]) | also measured
COC[C@H]1OC(=O)c2coc3c2[C@@]1(C)C1=C(C3=O)[C@@H]2CC[C@H](O)[C@@]2(C)C[C@H]1OC(C)=O [Compound 17-OH-Wort, 17β-Hydroxywortmannin, reference compound] | 2.3 µg/mL | <0.01 µg/mL | 1 µg/mL | 0.076 µg/mL | 15 µg/mL | >15 µg/mL | 0.0034 µg/mL | MDA468 IC50 ([1]; Table 2): 3 µg/mL; Rat1-IGF1 IC50 ([2]; Table 2): <0.01 µg/mL; LNCaP IC50 ([3]; Table 2): 0.3 µg/mL; TOR IC50 (Human TOR; Table 2): 0.059 µg/mL; toxicity (C3H mammary model; dose of 1.0 mg/kg): toxicity; antitumor activity (C3H mammary model; dose of 0.5 (mg/kg)): no inhibition; increase in activity relative to wortmannin (PI3K [4]; PI3K, literature): 10 fold; IC50 (PI3K [4]; literature value): 0.5 nM; DU145 IC50 ([5]; Table 2): 13 µg/mL; MDA435 IC50 ([6]; Table 2): 20 µg/mL; IC50 (PI3K [7]; Table 2): 2 nM
CCOc1cc2ncc(C#N)c(Nc3ccc(OCc4ccccn4)c(Cl)c3)c2cc1NC(=O)/C=C/CN(C)C [HKI-272, (E)-N-{4-[3-chloro-4-(2-pyridinylmethoxy)anilino]-3-cyano-7-ethoxy-6-quinolinyl}-4-(dimethylamino)-2-butenamide] |  |  |  |  |  |  |  | sensitivity of MDA361-DYT2 to single agent [8]: resistant; effect on AKT pathway markers [9]: little effect; phosphorylated forms of Her2/Neu and ERK [9]: completely inhibited
(1E,4S,4aR,5R,6aS,7S)-7,11-dihydroxy-4-(methoxymethyl)-4a,6a-dimethyl-1-{[methyl(1-methylpyrrolidin-3-yl)amino]methylene}-2,10-dioxo-1,2,4,4a,5,6,6a,7,8,9,9a,10-dodecahydroindeno[4,5-h]isochromen-5-yl acetate [Compound 6] | 2.01 µg/mL | 0.02 µg/mL | 0.55 µg/mL | 0.66 µg/mL | 13 µg/mL | >15 µg/mL | 0.07 µg/mL | 
